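Exposure lasted 48 hours, with cells grown in 96-well plates and compounds tested at five concentrations. GI50 is the concentration that inhibits growth by half. TGI: total growth inhibition.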
Assays:
Experiment in all cases: NCI-60 cell line screen, 48 h; in the data active means GI50 below about 0.43 µM; inactive means the rest
786-0 renal = tested on: 786-0 renal
ACHN renal = tested on: ACHN renal
BT-549 breast = tested on: BT-549 breast
CCRF-CEM leukemia = tested on: CCRF-CEM leukemia
DU-145 prostate = tested on: DU-145 prostate
EKVX NSCLC = tested on: EKVX NSCLC
HCC-2998 colon = tested on: HCC-2998 colon
HCT-116 colon = tested on: HCT-116 colon
HCT-15 colon = tested on: HCT-15 colon
HL-60(TB) leukemia = tested on: HL-60(TB) leukemia
HOP-62 NSCLC = tested on: HOP-62 NSCLC
HS 578T breast = tested on: HS 578T breast
IGROV1 ovarian = tested on: IGROV1 ovarian
K-562 leukemia = tested on: K-562 leukemia
KM12 colon = tested on: KM12 colon
LOX IMVI melanoma = tested on: LOX IMVI melanoma
MCF7 breast = tested on: MCF7 breast
MDA-MB-231 breast = tested on: MDA-MB-231 breast
MOLT-4 leukemia = tested on: MOLT-4 leukemia
NCI-H226 lung = tested on: NCI-H226 lung
NCI-H23 lung = tested on: NCI-H23 lung
NCI-H522 lung = tested on: NCI-H522 lung
OVCAR-5 ovarian = tested on: OVCAR-5 ovarian
OVCAR-8 ovarian = tested on: OVCAR-8 ovarian
RPMI-8226 leukemia = tested on: RPMI-8226 leukemia
RXF 393 renal = tested on: RXF 393 renal
SF-268 CNS = tested on: SF-268 CNS
SF-295 CNS = tested on: SF-295 CNS
SF-539 CNS = tested on: SF-539 CNS
SK-MEL-2 melanoma = tested on: SK-MEL-2 melanoma
SK-MEL-28 melanoma = tested on: SK-MEL-28 melanoma
SN12C renal = tested on: SN12C renal
SNB-19 CNS = tested on: SNB-19 CNS
SNB-75 CNS = tested on: SNB-75 CNS
SR leukemia = tested on: SR leukemia
SW-620 colon = tested on: SW-620 colon
UACC-62 melanoma = tested on: UACC-62 melanoma
A498 renal = tested on: A498 renal
A549 NSCLC = tested on: A549 NSCLC
CAKI-1 renal = tested on: CAKI-1 renal
COLO 205 colon = tested on: COLO 205 colon
HOP-92 NSCLC = tested on: HOP-92 NSCLC
HT29 colon = tested on: HT29 colon
M14 melanoma = tested on: M14 melanoma
MALME-3M melanoma = tested on: MALME-3M melanoma
MDA-MB-435 = tested on: MDA-MB-435
NCI-H460 lung = tested on: NCI-H460 lung
NCI/ADR-RES ovarian = tested on: NCI/ADR-RES ovarian
OVCAR-3 ovarian = tested on: OVCAR-3 ovarian
OVCAR-4 ovarian = tested on: OVCAR-4 ovarian
PC-3 prostate = tested on: PC-3 prostate
SK-MEL-5 melanoma = tested on: SK-MEL-5 melanoma
SK-OV-3 ovarian = tested on: SK-OV-3 ovarian
TK-10 renal = tested on: TK-10 renal
U251 CNS = tested on: U251 CNS
UACC-257 melanoma = tested on: UACC-257 melanoma
UO-31 renal = tested on: UO-31 renal

CN(C)c1nc(-c2cccs2)n2nc(-c3ccc(Cl)cc3)cc2n1
inactive: GI50 (786-0 renal) 3.93 µM | GI50 (ACHN renal) 3.97 µM | GI50 (BT-549 breast) 62.8 µM | GI50 (CCRF-CEM leukemia) > 100 µM | GI50 (DU-145 prostate) > 100 µM | GI50 (EKVX NSCLC) 4.38 µM | GI50 (HCC-2998 colon) > 100 µM | GI50 (HCT-116 colon) 2.43 µM | GI50 (HCT-15 colon) > 100 µM | GI50 (HL-60(TB) leukemia) > 100 µM | GI50 (HOP-62 NSCLC) 2.27 µM | GI50 (HS 578T breast) 3.11 µM | GI50 (IGROV1 ovarian) 5.28 µM | GI50 (K-562 leukemia) > 100 µM | GI50 (KM12 colon) > 100 µM | GI50 (LOX IMVI melanoma) 3.58 µM | GI50 (MCF7 breast) > 100 µM | GI50 (MDA-MB-231 breast) 3.7 µM | GI50 (MOLT-4 leukemia) > 100 µM | GI50 (NCI-H226 lung) 2.73 µM | GI50 (NCI-H23 lung) 6.51 µM | GI50 (NCI-H522 lung) > 100 µM | GI50 (OVCAR-5 ovarian) > 100 µM | GI50 (OVCAR-8 ovarian) 3.59 µM | GI50 (RPMI-8226 leukemia) > 100 µM | GI50 (RXF 393 renal) 3.39 µM | GI50 (SF-268 CNS) 21.3 µM | GI50 (SF-295 CNS) 2.49 µM | GI50 (SF-539 CNS) 25.5 µM | GI50 (SK-MEL-2 melanoma) 9.03 µM | GI50 (SK-MEL-28 melanoma) > 100 µM | GI50 (SN12C renal) > 100 µM | GI50 (SNB-19 CNS) 64.1 µM | GI50 (SNB-75 CNS) 2.26 µM | GI50 (SR leukemia) > 100 µM | GI50 (SW-620 colon) > 100 µM | GI50 (UACC-62 melanoma) 5.92 µM
> 100 µM: TGI (786-0 renal) | TGI (ACHN renal) | TGI (BT-549 breast) | TGI (CCRF-CEM leukemia) | TGI (DU-145 prostate) | TGI (EKVX NSCLC) | TGI (HCC-2998 colon) | TGI (HCT-116 colon) | TGI (HCT-15 colon) | TGI (HL-60(TB) leukemia) | TGI (HS 578T breast) | TGI (IGROV1 ovarian) | TGI (K-562 leukemia) | TGI (KM12 colon) | TGI (LOX IMVI melanoma) | TGI (MCF7 breast) | TGI (MDA-MB-231 breast) | TGI (MOLT-4 leukemia) | TGI (NCI-H226 lung) | TGI (NCI-H23 lung) | TGI (NCI-H522 lung) | TGI (OVCAR-5 ovarian) | TGI (OVCAR-8 ovarian) | TGI (RPMI-8226 leukemia) | TGI (RXF 393 renal) | TGI (SF-268 CNS) | TGI (SF-295 CNS) | TGI (SF-539 CNS) | TGI (SK-MEL-2 melanoma) | TGI (SK-MEL-28 melanoma) | TGI (SN12C renal) | TGI (SNB-19 CNS) | TGI (SR leukemia) | TGI (SW-620 colon) | TGI (UACC-62 melanoma)
6.53 µM: TGI (HOP-62 NSCLC)
10.4 µM: TGI (SNB-75 CNS)

CCCC[C@@H]1CCN2C[C@@H](O)[C@@H](O)[C@H]2[C@@H]1O
> 100 µM: TGI (786-0 renal) | TGI (A498 renal) | TGI (A549 NSCLC) | TGI (ACHN renal) | TGI (BT-549 breast) | TGI (CAKI-1 renal) | TGI (CCRF-CEM leukemia) | TGI (COLO 205 colon) | TGI (EKVX NSCLC) | TGI (HCC-2998 colon) | TGI (HCT-116 colon) | TGI (HCT-15 colon) | TGI (HL-60(TB) leukemia) | TGI (HOP-92 NSCLC) | TGI (HS 578T breast) | TGI (HT29 colon) | TGI (IGROV1 ovarian) | TGI (K-562 leukemia) | TGI (KM12 colon) | TGI (LOX IMVI melanoma) | TGI (M14 melanoma) | TGI (MALME-3M melanoma) | TGI (MCF7 breast) | TGI (MDA-MB-231 breast) | TGI (MDA-MB-435) | TGI (MOLT-4 leukemia) | TGI (NCI-H226 lung) | TGI (NCI-H23 lung) | TGI (NCI-H460 lung) | TGI (NCI-H522 lung) | TGI (NCI/ADR-RES ovarian) | TGI (OVCAR-3 ovarian) | TGI (OVCAR-4 ovarian) | TGI (OVCAR-5 ovarian) | TGI (OVCAR-8 ovarian) | TGI (PC-3 prostate) | TGI (RPMI-8226 leukemia) | TGI (SF-268 CNS) | TGI (SF-295 CNS) | TGI (SF-539 CNS) | TGI (SK-MEL-2 melanoma) | TGI (SK-MEL-28 melanoma) | TGI (SK-MEL-5 melanoma) | TGI (SK-OV-3 ovarian) | TGI (SNB-19 CNS) | TGI (SNB-75 CNS) | TGI (SW-620 colon) | TGI (TK-10 renal) | TGI (U251 CNS) | TGI (UACC-257 melanoma) | TGI (UACC-62 melanoma) | TGI (UO-31 renal)
